# In patent publication US20260226414A1, “COMPOSITION FOR INDUCING DIFFERENTIATION OF MESENCHYMAL STEM CELLS INTO ADIPOCYTES” (ENCELL CO., LTD, priority 2023, published 2026):
# Assays:
# Type in all cases: cell-based
# [1] = tested on: human adipose-derived mesenchymal stem cells; experiment: Cell viability / cytotoxicity by Cell Counting Kit-8 (CCK-8); conditions: 0-280 μM nervonic acid, vs DMSO control
# Procedure: The isolated human adipose-derived mesenchymal stem cells were treated with nervonic acid at different concentrations and cultured for 72 hours, after which cytotoxicity was measured. Specifically, Cell Counting Kit-8 (CCK-8, Dojindo, Tokyo, Japan) was used, and 1×10^3/well of cells were plated on a 96-well plate, stabilized for 24 hours, and then treated with nervonic acid at different concentrations (0, 40, 80, 120, 160, 200, 240, 280 μM), including the control group (DMSO), and cell viability was measured.
# Before confirming the efficacy of nervonic acid to promote adipogenesis, cell viability was reconfirmed by treating cells with nervonic acid at various concentrations for 7 days. The specific method is the same as the method described above, and cell viability was measured by treatment with nervonic acid at different concentrations (0, 40, 80, 120, 160, 200, 240, 280 μM), including the control group (DMSO).
# [2] = tested on: human adipose-derived mesenchymal stem cells (AD-MSCs); experiment: qRT-PCR of adipogenesis markers at the mRNA level (2^-ΔΔCt); conditions: 160 μM, day 14, qRT-PCR
# Procedure: After inducing adipogenesis for 14 days by treating human adipose-derived mesenchymal stem cells (AD-MSCs) with 160 μM nervonic acid, the gene expression of adipogenesis markers at the mRNA level was compared using qRT-PCR.
# Specifically, RNA for qRT-PCR was extracted from mesenchymal stem cells with adipogenesis completed using TRIZOL from Invitrogen according to the method provided by the vendor, and cDNA was synthesized using SuperScript™ IV Reverse Transcriptase from Invitrogen. qRT-PCR was performed using the primers listed in Table 1 below, and the quantified results through 2^−ΔΔCt analysis are shown in FIG. 12.
# [3] = tested on: human adipose-derived mesenchymal stem cells; experiment: Observation of oil droplet formation after 72 hours of culture with nervonic acid; conditions: 72 hours treatment, different concentrations
# Procedure: Human adipose-derived mesenchymal stem cells were treated with nervonic acid at different concentrations for 72 hours and cultured, after which the concentration at which oil droplets were generated was observed.
# [4] = tested on: human adipose-derived mesenchymal stem cells (AD-MSCs); experiment: Adipogenesis induction, Oil Red O staining and quantification (absorbance at 540 nm); conditions: for Oil Red O stained oil droplets, fold increase compared to DMSO-treated control group: 160 μM, three lots of AD-MSCs
# Procedure: To determine the appropriate concentration of nervonic acid having excellent efficacy in promoting adipogenesis, adipogenesis was induced for 7 days by treating human adipose-derived mesenchymal stem cells with nervonic acid at different concentrations (0, 40, 80, 120, 160, 200, 240, 280 μM), followed by Oil Red O staining to confirm the stained oil droplets.
# (§1) Specifically, for Oil Red O (Sigma-Aldrich, St. Louis, MO, USA) staining, after completion of differentiation, the culture medium was removed from each well of the plate, followed by washing twice with 1×PBS and then fixing with 4% paraformaldehyde (PFA) for 10 minutes. Washing three times with deionized water and then washing once with 60% isopropyl alcohol were performed. The Oil Red O stock solution was diluted with deionized water in a ratio of 3:2 to prepare an Oil Red O working solution, 1 ml of which was then added to each well of the plate followed by reaction at room temperature for 30 minutes. After washing once with 60% isopropyl alcohol and washing three times with deionized water, the red-stained oil droplets were observed and photographed under a microscope, and the results are shown in FIG. 4a.
# After inducing adipogenesis for 7 days by treating human adipose-derived mesenchymal stem cells with nervonic acid at different concentrations (0, 40, 80, 120, 160, 200, 240, 280 μM), the results of quantification of the oil droplets stained by Oil Red O staining are shown in FIG. 4b.
# Specifically, the stained oil droplets were dissolved in 100% isopropyl alcohol, and 100 μl of the result was transferred to each well of the 96-well plate, followed by measurement using a microplate reader (absorbance at 540 nm). […] Nervonic acid (Sigma-Aldrich, St. Louis, MO, USA) was dissolved in DMSO and then stored at −80° C. before use.
# Adipogenesis was induced for 7 days by treating a total of three lots of human adipose-derived mesenchymal stem cells (AD-MSCs) with 160 μM nervonic acid, followed by observation of the oil droplets stained by Oil Red O staining, and the results are shown in FIG. 5a.
# [5] = tested on: human adipose-derived mesenchymal stem cells (AD-MSCs); experiment: Western blotting of adipogenesis markers at the protein level; conditions: 160 μM, day 14, Western blotting
# Procedure: After inducing adipogenesis for 14 days by treating human adipose-derived mesenchymal stem cells (AD-MSCs) with 160 μM nervonic acid, the expression of adipogenesis markers at the protein level was compared using Western blotting.
# Specifically, protein for Western blotting was extracted from mesenchymal stem cells with adipogenesis completed using RIPA lysis buffer, and Western blotting was performed using the primary antibodies listed in Table 2 below.
# [6] = tested on: human bone marrow-derived mesenchymal stem cells (BM-MSCs); experiment: Adipogenesis induction, Oil Red O staining quantification; conditions: 160 μM, days 7 and 14
# Procedure: as §1
# (§2) Specifically, the stained oil droplets were dissolved in 100% isopropyl alcohol, and 100 μl of the result was transferred to each well of the 96-well plate, followed by measurement using a microplate reader (absorbance at 540 nm). […]
# After inducing adipogenesis for 7, 14, and 21 days by treating human bone marrow-derived mesenchymal stem cells (BM-MSC) with nervonic acid, the oil droplets stained by Oil Red O staining are shown in FIG. 11a, and the results of quantification of the stained oil droplets are shown in FIG. 11b.
# [7] = tested on: human placenta-derived mesenchymal stem cells (PL-MSCs); experiment: as above
# Procedure: as §1, §2
# (§3) After inducing adipogenesis for 7, 14, and 21 days by treating human placenta-derived mesenchymal stem cells (PL-MSCs) with nervonic acid, the oil droplets stained by Oil Red O staining are shown in FIG. 9a, and the results of quantification of the stained oil droplets are shown in FIG. 9b.
# [8] = tested on: human umbilical cord blood-derived mesenchymal stem cells (UCB-MSCs); experiment: as above
# Procedure: as §1, §2
# as §3, with “umbilical cord blood-derived” for “placenta-derived”, “(UCB-MSCs)” for “(PL-MSCs)”, “8a,” for “9a,”, “8b.” for “9b.”
# [9] = tested on: human adipose-derived mesenchymal stem cells (AD-MSCs); experiment: Western blotting of adipogenesis-associated signaling molecules (phosphorylation ratios); conditions: 160 μM, day 14, Western blotting
# Procedure: After inducing adipogenesis for 14 days by treating human adipose-derived mesenchymal stem cells (AD-MSCs) with 160 μM nervonic acid, the expression of adipogenesis-associated signaling molecules at the protein level was compared using Western blotting.
# More specifically, protein for Western blotting was extracted using the same method as the extraction method described above, and Western blotting was performed using the primary antibodies listed in Table 3 below.
# [10] = tested on: human umbilical cord-derived mesenchymal stem cells (WJ-MSCs); experiment: Adipogenesis induction, Oil Red O staining quantification
# Procedure: as §1, §2
# After inducing adipogenesis for 7, 14, and 21 days by treating human umbilical cord-derived mesenchymal stem cells (WJ-MSCs) with nervonic acid, the oil droplets stained by Oil Red O staining are shown in FIG. 10a, and the results of quantification of the stained oil droplets are shown in FIG. 10b.
# [11] = 160 μM, 7, 14 and 21 days (all cases)
smiles,measurement,setting,value
CCCCCCCC/C=C\CCCCCCCCCCCCCC(=O)O [nervonic acid],cell viability (cytotoxicity),[1]; 72 hours (3 days),no significant difference in cell viability
same,cell viability (cytotoxicity),[1]; 7 days,no significant difference in cell viability
same,"Adiponectin mRNA expression, fold increase compared to control group",[2],1.37±0.19 fold
same,"LPL mRNA expression, fold increase compared to control group",[2],1.44±0.12 fold
same,"PPARγ mRNA expression, fold increase compared to control group",[2],1.74±0.35 fold
same,"c/EBPa mRNA expression, fold increase compared to control group",[2],1.66±0.22 fold
same,concentration at which oil droplets were observed,[3],≥ 160 µM
same,"Oil Red O stained oil droplets, fold increase compared to DMSO-treated control group",[4]; 7 days,2.13±0.27 fold
same,"Oil Red O stained oil droplets, fold increase compared to DMSO-treated control group",[4]; 14 days,1.70±0.08 fold
same,"Oil Red O stained oil droplets, fold increase compared to DMSO-treated control group",[4]; 21 days,1.27±0.14 fold
same,concentration at which adipogenesis was most effectively induced (Oil Red O quantification),"[4]; 7 days adipogenesis, 0-280 μM tested",160 µM
same,"Adiponectin protein expression, fold increase compared to control group",[5],2.35±0.55 fold
same,"C/EBPA protein expression, fold increase compared to control group",[5],1.37±0.08 fold
same,"LPL protein expression, fold increase compared to control group",[5],1.53±0.15 fold
same,"PPARγ protein expression, fold increase compared to control group",[5],2.34±0.69 fold
same,adipogenesis (Oil Red O) compared to DMSO control group,[6],slightly increased
same,"Oil Red O stained oil droplets, fold increase compared to DMSO control group",[7]; [11],≥ 2 fold
same,"Oil Red O stained oil droplets, fold increase compared to DMSO control group","[7]; 160 μM, day 21 (greatest)",9.22±0.15 fold
same,"Oil Red O stained oil droplets, fold increase compared to DMSO control group",[8]; [11],≥ 2 fold
same,"Oil Red O stained oil droplets, fold increase compared to DMSO control group","[8]; 160 μM, day 21 (greatest)",3.87±0.06 fold
same,"AKT phosphorylation ratio (activation indicator), fold increase compared to control group",[9],1.36±0.16 fold
same,"B-catenin phosphorylation ratio (inactivation indicator), fold increase compared to control group",[9],1.39±0.06 fold
same,"mTOR phosphorylation ratio (activation indicator), fold increase compared to control group",[9],1.34±0.14 fold
same,"Oil Red O stained oil droplets, fold increase compared to DMSO control group",[10]; [11],≥ 2 fold
same,"Oil Red O stained oil droplets, fold increase compared to DMSO control group","[10]; 160 μM, day 21 (greatest)",5.61±0.23 fold
